Active and inactive are the calls of the source. The calls are words filed in the database; no cut-off is given here.
Key:
[1] = biological target: T1, Delta-type opioid receptor (Homo sapiens, UniProt P41143); experiment: Agonist activity at human DOR expressed in CHO-K1 cells co-expressing G-alpha15 by calcium mobilization assay; type: functional, cell-based
Mu-type opioid receptor [2] = biological target: T2, Mu-type opioid receptor (Homo sapiens, UniProt P35372); experiment: Agonist activity at human MOR expressed in CHO-K1 cells co-expressing G-alpha15 by calcium mobilization assay; type: functional, cell-based
T2 sequence (P35372 whole entry): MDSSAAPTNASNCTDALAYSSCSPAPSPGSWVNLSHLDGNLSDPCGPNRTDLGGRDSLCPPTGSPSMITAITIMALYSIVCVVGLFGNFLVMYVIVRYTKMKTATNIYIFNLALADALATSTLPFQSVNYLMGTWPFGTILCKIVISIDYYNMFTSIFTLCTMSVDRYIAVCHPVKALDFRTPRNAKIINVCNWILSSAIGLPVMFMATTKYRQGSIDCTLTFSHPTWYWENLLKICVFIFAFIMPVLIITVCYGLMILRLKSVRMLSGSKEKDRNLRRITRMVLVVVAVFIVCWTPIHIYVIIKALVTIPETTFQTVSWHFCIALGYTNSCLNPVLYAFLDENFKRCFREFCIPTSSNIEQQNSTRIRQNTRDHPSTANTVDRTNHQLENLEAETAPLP

[3] = Stability in mouse plasma assessed as half life at 0.01 mol/L measured for 72 hrs by RP-HPLC analysis; type: ADME, cell-free
[4] = biological target: T3, Kappa-type opioid receptor (Homo sapiens, UniProt P41145); experiment: Agonist activity at human KOR expressed in CHO-K1 cells co-expressing G-alpha15 by calcium mobilization assay; type: functional, cell-based
T3 sequence (P41145 whole entry): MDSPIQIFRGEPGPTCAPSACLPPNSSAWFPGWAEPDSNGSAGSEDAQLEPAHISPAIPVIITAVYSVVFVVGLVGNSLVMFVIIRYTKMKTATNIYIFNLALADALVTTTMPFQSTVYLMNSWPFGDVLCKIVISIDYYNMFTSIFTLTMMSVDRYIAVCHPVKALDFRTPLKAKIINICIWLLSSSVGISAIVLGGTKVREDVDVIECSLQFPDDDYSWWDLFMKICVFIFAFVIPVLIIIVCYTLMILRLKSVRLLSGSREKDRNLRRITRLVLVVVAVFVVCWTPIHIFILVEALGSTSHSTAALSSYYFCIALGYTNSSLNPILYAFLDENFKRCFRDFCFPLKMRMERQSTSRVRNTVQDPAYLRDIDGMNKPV

[5] = biological target: T1, Delta-type opioid receptor; experiment: Agonist activity at human DOR expressed in CHO-K1 cells co-expressing G-alpha15 by calcium mobilization assay relative to control; type: functional, cell-based; conditions: filed as agonist
Mu-type opioid receptor [6] = biological target: T2, Mu-type opioid receptor; experiment: Agonist activity at human MOR expressed in CHO-K1 cells co-expressing G-alpha15 by calcium mobilization assay relative to control; type: functional, cell-based; conditions: filed as agonist
[7] = biological target: T3, Kappa-type opioid receptor; experiment: Agonist activity at human KOR expressed in CHO-K1 cells co-expressing G-alpha15 upto 100 uM by calcium mobilization assay; type: functional, cell-based
Mus musculus [8] = experiment: Antinociceptive activity in Kunming mouse model assessed as latency of tail withdrawal at 1416 nmol/kg, sc measured for 120 mins by tail-flick test relative to control; type: functional; conditions: 2 h
Mus musculus [9] = experiment: Antinociceptive activity in Kunming mouse model assessed as latency of tail withdrawal at 1416 nmol/kg, sc measured for 30 mins by tail-flick test relative to control; type: functional; conditions: 0.5 h
Mus musculus [10] = experiment: Antinociceptive activity in Kunming mouse model assessed as latency of tail withdrawal at 1416 nmol/kg, sc measured for 10 mins by tail-flick test relative to control; type: functional
Mus musculus [11] = experiment: Antinociceptive activity in Kunming mouse model assessed as latency of tail withdrawal at 1416 nmol/kg, sc measured for 60 mins by tail-flick test relative to control; type: functional; conditions: 1 h
[12] = biological target: T3, Kappa-type opioid receptor; experiment: Agonist activity at human KOR expressed in CHO-K1 cells co-expressing G-alpha15 by calcium mobilization assay relative to control; type: functional, cell-based
Mus musculus [13] = experiment: Antinociceptive activity in Kunming mouse model assessed as latency of tail withdrawal at 138.8 nmol/kg, sc measured for 30 mins by tail-flick test relative to control; type: functional; conditions: 0.5 h
Mus musculus [14] = experiment: Antinociceptive activity in Kunming mouse model assessed as latency of tail withdrawal at 138.8 nmol/kg, sc measured for 60 mins by tail-flick test relative to control; type: functional; conditions: 1 h
Mus musculus [15] = experiment: Antinociceptive activity in Kunming mouse model assessed as latency of tail withdrawal at 138.8 nmol/kg, sc measured for 120 mins by tail-flick test relative to control; type: functional; conditions: 2 h
Mus musculus [16] = experiment: Antinociceptive activity in Kunming mouse model assessed as latency of tail withdrawal at 138.8 nmol/kg, sc measured for 10 mins by tail-flick test relative to control; type: functional

T1 sequence (P41143 whole entry): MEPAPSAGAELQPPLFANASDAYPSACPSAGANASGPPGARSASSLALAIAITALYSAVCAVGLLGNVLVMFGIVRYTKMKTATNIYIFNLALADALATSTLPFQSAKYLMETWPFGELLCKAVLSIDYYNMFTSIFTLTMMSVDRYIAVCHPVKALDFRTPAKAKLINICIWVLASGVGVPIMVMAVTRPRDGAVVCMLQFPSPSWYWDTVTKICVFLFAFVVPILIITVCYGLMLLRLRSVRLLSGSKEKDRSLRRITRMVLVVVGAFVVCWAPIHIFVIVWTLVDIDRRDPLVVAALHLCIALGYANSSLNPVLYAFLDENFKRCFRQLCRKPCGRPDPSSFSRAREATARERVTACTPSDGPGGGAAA

NC(=O)[C@H]1CCCN1C(=O)[C@@H]1CC(=O)NCCCC[C@@H](NC(=O)[C@@H](N)Cc2ccc(O)cc2)C(=O)NCC(=O)N[C@@H](CC2CCCCC2)C(=O)N1
EC50 ([1]; cho-k1): 804 nM | EC50 (Mu-type opioid receptor [2]; cho-k1): 43.2 nM

NC(=O)[C@H]1CCCN1C(=O)[C@@H]1CC(=O)NCCCC[C@@H](NC(=O)[C@@H](N)Cc2ccc(O)cc2)C(=O)NCC(=O)N[C@@H](Cc2ccccc2)C(=O)N1 [listing 1 of 2 here]
EC50 [1]: 2.1 nM | half-life at 0.01 mol/L [3]: 41.9 h | EC50 (Mu-type opioid receptor [2]): 31.1 nM | EC50 [4]: 2830 nM

NC(=O)[C@H]1CCCN1C(=O)[C@@H]1CC(=O)NCCCC[C@@H](NC(=O)[C@@H](N)Cc2ccc(O)cc2)C(=O)NCC(=O)N[C@@H](Cc2ccc3ccccc3c2)C(=O)N1
EC50 ([1]; cho-k1): 2.2 nM | half-life at 0.01 mol/L [3]: 20.3 h | EC50 (Mu-type opioid receptor [2]; cho-k1): 1.8 nM

NC(=O)[C@@H]1CCCN1C(=O)[C@H]1CC(=O)NCCCC[C@@H](NC(=O)[C@@H](N)Cc2ccc(O)cc2)C(=O)NCC(=O)N[C@@H](CCc2ccccc2)C(=O)N1
Emax [5]: 66.6% | Emax (Mu-type opioid receptor [6]): 99.8% | Activity [7]: inactive

NC(=O)[C@H]1CCCN1C(=O)[C@@H]1CC(=O)NCCCC[C@@H](NC(=O)[C@@H](N)Cc2ccc(O)cc2)C(=O)NCC(=O)N[C@@H](Cc2ccccc2)C(=O)N1 [listing 2 of 2 here]
MPE (Mus musculus [8]): 33.6% | MPE (Mus musculus [9]): 91.2% | MPE (Mus musculus [10]): 65.5% | MPE (Mus musculus [11]): 63.7%

NC(=O)[C@@H]1CCCN1C(=O)[C@H]1CC(=O)NCCCC[C@@H](NC(=O)[C@@H](N)Cc2ccc(O)cc2)C(=O)NCC(=O)N[C@@H](CC2CCCCC2)C(=O)N1
Emax [5]: 54.4% | Emax (Mu-type opioid receptor [6]): 105%

NC(=O)CNC(=O)[C@H]1CC(=O)NCCCC[C@@H](NC(=O)[C@@H](N)Cc2ccc(O)cc2)C(=O)NCC(=O)N[C@@H](Cc2ccccc2)C(=O)N1
Emax [5]: 104% | Emax ([12]; filed as agonist): 48.4% | Emax (Mu-type opioid receptor [6]): 91.1%

Cc1ccc(C[C@@H]2NC(=O)CNC(=O)[C@H](NC(=O)[C@@H](N)Cc3ccc(O)cc3)CCCCNC(=O)C[C@@H](C(=O)N3CCC[C@@H]3C(N)=O)NC2=O)cc1 [listing 1 of 2 here]
MPE (Mus musculus [13]): 95.6% | MPE (Mus musculus [14]): 67.1% | MPE (Mus musculus [15]): 39.2% | MPE (Mus musculus [16]): 44.8%

CN1CC(=O)N[C@@H](Cc2ccccc2)C(=O)N[C@@H](C(=O)N2CCC[C@H]2C(N)=O)CC(=O)NCCCC[C@@H](NC(=O)[C@@H](N)Cc2ccc(O)cc2)C1=O
Emax [5]: 100% | Emax (Mu-type opioid receptor [6]): 118%

NC(=O)[C@@H]1CCCN1C(=O)[C@H]1CC(=O)NCCCC[C@@H](NC(=O)[C@@H](N)Cc2ccc(O)cc2)C(=O)NCC(=O)N(Cc2ccccc2)CC(=O)N1
Emax [5]: 88.9% | Emax (Mu-type opioid receptor [6]): 113% | Activity [7]: inactive

NC(=O)[C@@H]1CCCN1C(=O)[C@H]1CC(=O)NCCCC[C@@H](NC(=O)[C@@H](N)Cc2ccc(O)cc2)C(=O)NCC(=O)N[C@H](Cc2ccccc2)C(=O)N1
Emax [5]: 72.8% | MPE (Mus musculus [8]): 28.3% | EC50 [1]: 965 nM | MPE (Mus musculus [9]): 86.6% | EC50 (Mu-type opioid receptor [2]): 41.6 nM | MPE (Mus musculus [10]): 61.8% | Emax (Mu-type opioid receptor [6]): 104% | MPE (Mus musculus [11]): 55.5% | Activity [7]: inactive

Cc1cc(O)cc(C)c1C[C@H](N)C(=O)N[C@@H]1CCCCNC(=O)C[C@H](C(=O)N2CCC[C@H]2C(N)=O)NC(=O)[C@H](Cc2ccccc2)NC(=O)CNC1=O
Emax [5]: 116% | Emax [12]: 39.2% | Emax (Mu-type opioid receptor [6]): 101%

NC(=O)[C@H]1CCCN1C(=O)[C@@H]1CC(=O)NCCCC[C@@H](NC(=O)[C@@H](N)Cc2ccc(O)cc2)C(=O)NCC(=O)N(Cc2ccccc2)CC(=O)N1 [listing 1 of 2 here]
MPE (Mus musculus [8]): 7.7% | MPE (Mus musculus [9]): 91.4% | MPE (Mus musculus [10]): 46.8% | MPE (Mus musculus [11]): 76.3%

NC(=O)CNC(=O)[C@@H]1CC(=O)NCCCC[C@@H](NC(=O)[C@@H](N)Cc2ccc(O)cc2)C(=O)NCC(=O)N[C@@H](Cc2ccccc2)C(=O)N1
EC50 ([1]; cho-k1): 623 nM | EC50 (Mu-type opioid receptor [2]; cho-k1): 113 nM | EC50 ([4]; cho-k1): 9200 nM

Cc1ccc(C[C@@H]2NC(=O)CNC(=O)[C@H](NC(=O)[C@@H](N)Cc3ccc(O)cc3)CCCCNC(=O)C[C@H](C(=O)N3CCC[C@H]3C(N)=O)NC2=O)cc1
Emax [5]: 115% | Emax ([12]; filed as agonist): 66.7% | Emax (Mu-type opioid receptor [6]): 109%

C[C@@H]1NC(=O)[C@H](NC(=O)[C@@H](N)Cc2ccc(O)cc2)CCCCNC(=O)C[C@H](C(=O)N2CCC[C@H]2C(N)=O)NC(=O)[C@H](Cc2ccccc2)NC1=O
Emax [5]: 96.6% | MPE (Mus musculus [13]): 88.9% | EC50 ([1]; cho-k1): 52 nM | Emax ([12]; filed as agonist): 51.4% | EC50 (Mu-type opioid receptor [2]; cho-k1): 8.2 nM | MPE (Mus musculus [14]): 70.1% | EC50 ([4]; cho-k1): 4820 nM | MPE (Mus musculus [15]): 27.4% | Emax (Mu-type opioid receptor [6]): 93.7% | MPE (Mus musculus [16]): 70.9%

CC1(C)NC(=O)[C@H](NC(=O)[C@@H](N)Cc2ccc(O)cc2)CCCCNC(=O)C[C@@H](C(=O)N2CCC[C@@H]2C(N)=O)NC(=O)[C@H](Cc2ccccc2)NC1=O
EC50 ([1]; cho-k1): 49.1 nM | half-life at 0.01 mol/L [3]: > 72 h | EC50 (Mu-type opioid receptor [2]; cho-k1): 5.3 nM | EC50 ([4]; cho-k1): 7250 nM

NC(=O)[C@H]1CC(=O)NCCCC[C@@H](NC(=O)[C@@H](N)Cc2ccc(O)cc2)C(=O)NCC(=O)N[C@@H](Cc2ccccc2)C(=O)N1
Emax [5]: 125% | Emax ([12]; filed as agonist): 85.5% | Emax (Mu-type opioid receptor [6]): 103%

NC(=O)[C@H]1CCCN1C(=O)[C@@H]1CC(=O)NCCCC[C@@H](NC(=O)[C@@H](N)Cc2ccc(O)cc2)C(=O)NCCC(=O)N[C@@H](Cc2ccccc2)C(=O)N1 [listing 1 of 2 here]
MPE (Mus musculus [13]): 92.6% | MPE (Mus musculus [14]): 71% | MPE (Mus musculus [15]): 40.6% | MPE (Mus musculus [16]): 45.6%

Cc1cc(O)cc(C)c1C[C@H](N)C(=O)N[C@@H]1CCCCNC(=O)C[C@@H](C(=O)N2CCC[C@@H]2C(N)=O)NC(=O)[C@H](Cc2ccccc2)NC(=O)CNC1=O
EC50 ([1]; cho-k1): 1.2 nM | EC50 (Mu-type opioid receptor [2]; cho-k1): 7.3 nM | EC50 ([4]; cho-k1): 3550 nM

NC(=O)[C@H]1CCCN1C(=O)[C@@H]1CC(=O)NCCCC[C@@H](NC(=O)[C@@H](N)Cc2ccc(O)cc2)C(=O)NCCC(=O)N[C@@H](Cc2ccccc2)C(=O)N1 [listing 2 of 2 here]
EC50 (Mu-type opioid receptor [2]; cho-k1): 974 nM

NC(=O)[C@@H]1CC(=O)NCCCC[C@@H](NC(=O)[C@@H](N)Cc2ccc(O)cc2)C(=O)NCC(=O)N[C@@H](Cc2ccccc2)C(=O)N1
EC50 ([1]; cho-k1): 12.5 nM | EC50 (Mu-type opioid receptor [2]; cho-k1): 1.4 nM | EC50 ([4]; cho-k1): 1290 nM

CN1CC(=O)N[C@@H](Cc2ccccc2)C(=O)N[C@H](C(=O)N2CCC[C@@H]2C(N)=O)CC(=O)NCCCC[C@@H](NC(=O)[C@@H](N)Cc2ccc(O)cc2)C1=O
EC50 ([1]; cho-k1): 3030 nM | EC50 (Mu-type opioid receptor [2]; cho-k1): 1150 nM

Cc1ccc(C[C@@H]2NC(=O)CNC(=O)[C@H](NC(=O)[C@@H](N)Cc3ccc(O)cc3)CCCCNC(=O)C[C@@H](C(=O)N3CCC[C@@H]3C(N)=O)NC2=O)cc1 [listing 2 of 2 here]
EC50 ([1]; cho-k1): 22.2 nM | EC50 (Mu-type opioid receptor [2]; cho-k1): 29.1 nM | EC50 ([4]; cho-k1): 2430 nM

NC(=O)[C@H]1CCCN1C(=O)[C@@H]1CC(=O)NCCCC[C@@H](NC(=O)[C@@H](N)Cc2ccc(O)cc2)C(=O)NCC(=O)N[C@@H](CCc2ccccc2)C(=O)N1
EC50 ([1]; cho-k1): 64.4 nM | EC50 (Mu-type opioid receptor [2]; cho-k1): 184 nM

NC(=O)[C@@H]1CCCN1C(=O)[C@H]1CC(=O)NCCCC[C@@H](NC(=O)[C@@H](N)Cc2ccc(O)cc2)C(=O)NCCC(=O)N[C@@H](Cc2ccccc2)C(=O)N1
Emax (Mu-type opioid receptor [6]): 95.9%

NC(=O)[C@H]1CCCN1C(=O)[C@@H]1CC(=O)NCCCC[C@@H](NC(=O)[C@@H](N)Cc2ccc(O)cc2)C(=O)NCC(=O)N(Cc2ccccc2)CC(=O)N1 [listing 2 of 2 here]
EC50 ([1]; cho-k1): 837 nM | EC50 (Mu-type opioid receptor [2]; cho-k1): 36.1 nM

From ChEMBL document CHEMBL5532665 (J Med Chem, 2024)
